This assay concerns the target T1, CCR1 (Homo sapiens, UniProt P32246).
T1 sequence (P32246 1-355): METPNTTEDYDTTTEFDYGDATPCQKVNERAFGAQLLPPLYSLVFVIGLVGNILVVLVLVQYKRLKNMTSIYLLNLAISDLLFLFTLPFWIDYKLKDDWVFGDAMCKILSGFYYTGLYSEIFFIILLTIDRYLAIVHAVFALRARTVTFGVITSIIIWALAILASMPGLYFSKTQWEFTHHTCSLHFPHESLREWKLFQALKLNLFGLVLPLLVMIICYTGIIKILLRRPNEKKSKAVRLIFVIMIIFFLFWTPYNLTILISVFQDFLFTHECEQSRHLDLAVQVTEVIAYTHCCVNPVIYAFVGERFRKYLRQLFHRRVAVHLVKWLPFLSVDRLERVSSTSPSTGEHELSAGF
Put plainly: Method B: calcium flux in CCR1 transfected cells (Calcium 4 dye, […] FDSS6000), block of the CCR1/MIP-1α interaction. It is filed as cell-based. The following applies: Method B: Calcium 4 dye, MIP-1alpha at EC80. Here is the method:
Compounds are assessed for the ability to block the interaction of CCR1 and MIP-1α in a functional cellular assay measuring calcium flux in CCR1 transfected cells.
Method B: Non-adherent cells purchased from Chemicon Corporation (HTS005C), stably expressing recombinant CCR1 and G-alpha-16 are grown in RPMI 1640 medium (Mediatech 10-080-CM) supplemented with 10% FBS, 0.4 mg/mL Geneticin and penicillin/streptomycin. On the day of the assay, the cells are loaded with Calcium 4 dye (Molecular Devices R7448) with Probenecid (Invitrogen P346400) at 8E5 cells/mL for 1 hour at room temperature. After 1 hour, they are seeded in a 384-well tissue culture-treated plate at a density of 20,000 cells/well. Appropriately diluted test compound is added to the well to achieve a top concentration of 3,000 nM (diluted 4-fold with 10 doses total). The final concentration of DMSO is 1%. The buffer is HBSS (Invitrogen 14025) with 20 mM HEPES at pH 7.4. The cells incubate 30 minutes at 37 C and then 30 minutes at room temperature. The plates are transferred to the […] FDSS6000 where MIP-1alpha in 1% BSA is added at the EC80 final concentration. All plates must be read within 4 hours of the start of dye-loading. Wells+/−MIP-1alpha containing diluted DMSO instead of compound serve as the controls. Data are analyzed using Activity Base software.
For orientation: A change in cytosolic calcium serves as a functional read-out for many receptors and channels.

Usually IC50 stands for the concentration needed to halve the response being measured. For `CCC(NC(=O)c1cncc2c1cnn2-c1ccc(F)cc1)c1cnc(N(C)S(C)(=O)=O)nc1` (centres unmarked) [1-(4-Fluorophenyl)-1H-pyrazolo[3,4-c]pyridine-4-carboxylic acid {1-[2-(methanesulfonyl-methyl-amino)-pyrimidin-5-yl]-propyl}-amide], the IC50 amounted to 7 nM. The value for `O=C(NCc1cc(Br)cs1)c1cncc2c1cnn2-c1ccc(F)cc1` [1-(4-Fluorophenyl)-1H-pyrazolo[3,4-c]pyridine-4-carboxylic acid (4-bromo-thiophen-2-ylmethyl)-amide] was 7 nM.

Take `CCC(NC(=O)c1cncc2c1cnn2-c1ccc(F)cc1)C1CCN(C(C)=O)CC1` (centres unmarked) [1-(4-Fluorophenyl)-1H-pyrazolo[3,4-c]pyridine-4-carboxylic acid [1-(1-acetyl-piperidin-4-yl)-propyl]-amide]: the IC50 turned out to be 10 nM. The value for `CC[C@H](NC(=O)c1nccc2c1cnn2-c1ccc(F)cc1)c1ccnc(S(C)(=O)=O)c1` [1-(4-Fluorophenyl)-1H-pyrazolo[4,3-c]pyridine-4-carboxylic acid [(S)-1-(2-methanesulfonyl-pyridin-4-yl)-propyl]-amide] was 3 nM. For the molecule `C[C@H](NC(=O)c1cncc2c1cnn2-c1ccc(F)cc1)c1nc(Br)cs1` [1-(4-Fluorophenyl)-1H-pyrazolo[3,4-c]pyridine-4-carboxylic acid [(S)-1-(4-bromo-thiazol-2-yl)-ethyl]-amide], the IC50 was 24 nM. On to `CC[C@H](NC(=O)c1cncc2c1cnn2-c1ccc(F)cc1)c1nc(C(N)=O)cs1` [1-(4-Fluorophenyl)-1H-pyrazolo[3,4-c]pyridine-4-carboxylic acid [(S)-1-(4-carbamoyl-thiazol-2-yl)-propyl]-amide], for which the IC50 was 8 nM. Consider `CCC(C)(NC(=O)c1cncc2c1cnn2-c1ccc(F)cc1)c1ccnc(S(C)(=O)=O)c1` (centres unmarked) [1-(4-Fluorophenyl)-1H-pyrazolo[3,4-c]pyridine-4-carboxylic acid [1-(2-methanesulfonyl-pyridin-4-yl)-1-methyl-propyl]-amide], for which the IC50 is 6 nM. The result for `C[C@H](NC(=O)c1cncc2c1cnn2-c1ccc(F)cc1)c1ccnc(S(=O)(=O)CCCO)c1` [1-(4-Fluorophenyl)-1H-pyrazolo[3,4-c]pyridine-4-carboxylic acid {(S)-1-[2-(3-hydroxy-propane-1-sulfonyl)-pyridin-4-yl]-ethyl}-amide] reads 38 nM; that for `CS(=O)(=O)c1cc([C@H](CC(O)CO)NC(=O)c2cncc3c2cnn3-c2ccc(F)cc2)ccn1` (single isomer, unassigned), 11 nM; that for `CC[C@H](NC(=O)c1cncc2c1cnn2-c1ccc(F)cc1)c1ccnc(N2CCS(=O)(=O)CC2)c1` [1-(4-Fluorophenyl)-1H-pyrazolo[3,4-c]pyridine-4-carboxylic acid {(S)-1-[2-(1,1-dioxo-1λ6-thiomorpholin-4-yl)-pyridin-4-yl]-propyl}-amide], 12 nM. For the molecule `CC[C@H](NC(=O)c1cncc2c1cnn2-c1ccc(F)cc1)c1cc(OC)nc(S(C)(=O)=O)c1` [1-(4-Fluorophenyl)-1H-pyrazolo[3,4-c]pyridine-4-carboxylic acid [(S)-1-(2-methanesulfonyl-6-methoxy-pyridin-4-yl)-propyl]-amide], the IC50 is 0.1 nM.

On to `CC[C@H](NC(=O)c1cncc2c1cnn2-c1ccc(F)cc1)c1ccnc(S(N)(=O)=O)c1` [1-(4-Fluorophenyl)-1H-pyrazolo[3,4-c]pyridine-4-carboxylic acid [(S)-1-(2-sulfamoyl-pyridin-4-yl)-propyl]-amide], for which the IC50 worked out at 0.4 nM.

Turning to `C=CC[C@H](NC(=O)c1cncc2c1cnn2-c1ccc(F)cc1)c1ccncc1` [1-(4-Fluorophenyl)-1H-pyrazolo[3,4-c]pyridine-4-carboxylic acid ((S)-1-pyridin-4-yl-but-3-enyl)-amide], the IC50 was found to be 32 nM. The result for `CC[C@H](NC(=O)c1cncc2c1cnn2-c1ccc(F)cc1)c1ccnc(-c2nnn[nH]2)c1` [1-(4-Fluorophenyl)-1H-pyrazolo[3,4-c]pyridine-4-carboxylic acid {(S)-1-[2-(1H-tetrazol-5-yl)-pyridin-4-yl]-propyl}-amide] reads 3 nM; that for `CCC(CC)(NC(=O)c1cncc2c1cnn2-c1ccc(F)cc1)c1ccnc(Br)c1` [1-(4-Fluorophenyl)-1H-pyrazolo[3,4-c]pyridine-4-carboxylic acid [1-(2-bromo-pyridin-4-yl)-1-ethyl-propyl]-amide], 29 nM; that for `CC[C@@H](NC(=O)c1cncc2c1cnn2-c1ccc(F)cc1)c1ccc(OC)c(Br)c1` [1-(4-Fluorophenyl)-1H-pyrazolo[3,4-c]pyridine-4-carboxylic acid [(R)-1-(3-bromo-4-methoxy-phenyl)-propyl]-amide], 0.2 nM. The result for `O=C(NCc1cnc(N2CCOCC2)nc1)c1cncc2c1cnn2-c1ccc(F)cc1` [1-(4-Fluorophenyl)-1H-pyrazolo[3,4-c]pyridine-4-carboxylic acid (2-morpholin-4-yl-pyrimidin-5-ylmethyl)-amide] reads 8 nM; that for `CCS(=O)(=O)c1cc([C@H](C)NC(=O)c2cncc3c2cnn3-c2ccc(F)cc2)ccn1` [1-(4-Fluorophenyl)-1H-pyrazolo[3,4-c]pyridine-4-carboxylic acid [(S)-1-(2-ethanesulfonyl-pyridin-4-yl)-ethyl]-amide], 2 nM. The value for `CC[C@H](NC(=O)c1cncc2c1cnn2-c1ccc(F)cc1)c1ccc(S(C)(=O)=O)o1` [1-(4-Fluorophenyl)-1H-pyrazolo[3,4-c]pyridine-4-carboxylic acid [(S)-1-(5-methanesulfonyl-furan-2-yl)-propyl]-amide] was 0.4 nM. On to `CCC[C@@H](NC(=O)c1cncc2c1cnn2-c1ccc(F)cc1)c1ccc(O)c(S(C)(=O)=O)c1` [1-(4-Fluorophenyl)-1H-pyrazolo[3,4-c]pyridine-4-carboxylic acid [(R)-1-(4-hydroxy-3-methanesulfonyl-phenyl)-butyl]-amide], for which the IC50 came out at 0.2 nM. Consider `CC[C@H](NC(=O)c1cncc2c1cnn2-c1ccc(F)cc1)c1ccc(S(C)(=O)=O)c(O)c1` [1-(4-Fluorophenyl)-1H-pyrazolo[3,4-c]pyridine-4-carboxylic acid [(S)-1-(3-hydroxy-4-methanesulfonyl-phenyl)-propyl]-amide], for which the IC50 came to 0.6 nM. For `CC[C@H](NC(=O)c1cncc2c1cnn2-c1ccc(F)cc1)c1ccncc1` [1-(4-Fluorophenyl)-1H-pyrazolo[3,4-c]pyridine-4-carboxylic acid ((S)-1-pyridin-4-yl-propyl)-amide], the IC50 worked out at 6 nM. Consider `CC[C@H](NC(=O)c1cncc2c1cnn2-c1ccc(F)cc1)c1ccnc([S@+](C)[O-])c1` [1-(4-Fluorophenyl)-1H-pyrazolo[3,4-c]pyridine-4-carboxylic acid {(S)-1-[2-((S)-methanesulfinyl)-pyridin-4-yl]-propyl}-amide], for which the half-maximal inhibitory concentration (IC50) is 0.5 nM. As for `CC[C@H](NC(=O)c1cncc2c1cnn2-c1ccc(F)cc1)c1cccc(S(C)(=O)=O)c1` [1-(4-Fluorophenyl)-1H-pyrazolo[3,4-c]pyridine-4-carboxylic acid [(S)-1-(3-methanesulfonyl-phenyl)-propyl]-amide], the IC50 is 0.3 nM. In the case of `CCS(=O)(=O)c1ccc([C@H](C)NC(=O)c2cncc3c2cnn3-c2ccc(F)cc2)cn1` [1-(4-Fluorophenyl)-1H-pyrazolo[3,4-c]pyridine-4-carboxylic acid [(S)-1-(6-ethanesulfonyl-pyridin-3-yl)-ethyl]-amide], the IC50 stood at 6 nM. The value for `COC(=O)CCS(=O)(=O)c1cccc([C@H](C)NC(=O)c2cncc3c2cnn3-c2ccc(F)cc2)n1` [3-[6-((S)-1-{[1-(4-Fluorophenyl)-1H-pyrazolo[3,4-c]pyridine-4-carbonyl]-amino}-ethyl)-pyridine-2-sulfonyl]-propionic acid methyl ester] was 35 nM. The result for `CC[C@H](NC(=O)c1cncc2c1cnn2-c1ccc(F)cc1)c1ccnc(N2CCN(C(C)=O)CC2)c1` [1-(4-Fluorophenyl)-1H-pyrazolo[3,4-c]pyridine-4-carboxylic acid {(S)-1-[2-(4-acetyl-piperazin-1-yl)-pyridin-4-yl]-propyl}-amide] reads 5 nM. On to `CC[C@H](NC(=O)c1cncc2c1cnn2-c1ccc(F)cc1)[C@@H]1CCN(S(C)(=O)=O)[C@H](C(N)=O)C1` [1-(4-Fluorophenyl)-1H-pyrazolo[3,4-c]pyridine-4-carboxylic acid [(S)-1-((2S,4R)-2-carbamoyl-1-methanesulfonyl-piperidin-4-yl)-propyl]-amide], for which the IC50 is 12 nM. The value for `CC[C@H](NC(=O)c1cncc2c1cnn2-c1ccc(F)cc1)c1ccnc([S@@+](C)[O-])c1` [1-(4-Fluorophenyl)-1H-pyrazolo[3,4-c]pyridine-4-carboxylic acid {(S)-1-[2-((R)-methanesulfinyl)-pyridin-4-yl]-propyl}-amide] was 0.6 nM.

The record behind these values is patent US8063065B2, “Azaindazole compounds as CCR1 receptor antagonists” (Boehringer Ingelheim International GmbH, priority 2008, dated 2011).
